Test: Inhibition of Cobetia marina ALP using pNPP as substrate; call rule not given here

| SMILES | IC50 (read-out: IC50) | IC50 |
| --- | --- | --- |
| O=C(O)c1cc2[nH]ccc2c(CO)n1 | 2 µM | – |
| OCc1nccc2[nH]ccc12 | – | Not Active |

The remaining lines, values ahead:

| IC50 (read-out: IC50) | IC50 | SMILES |
| --- | --- | --- |
| – | Not Active | O=C(O)CCCc1nccc2[nH]ccc12 |
| 100 µM | – | O=C(O)c1nc(CO)c2cc[nH]c2c1O |
| – | Not Active | O=C(O)c1nccc2[nH]ccc12 |
